Experimental data from PubChem BioAssay (NCI).
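Dose response: 5 concentrations. Exposure: 48 h. Format: 96-well plates. Endpoint: linear interpolation; highest concentration if not reached. Definition used: TGI = concentration required for complete inhibition of growth.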

Tests used:
Assay in all cases: NCI anticancer screen, dose series, 48 h
[1] = tested on: T-47D breast
[2] = tested on: NCI-H226 lung
[3] = tested on: OVCAR-8 ovarian
[4] = tested on: SNB-75 CNS
[5] = tested on: UACC-257 melanoma
[6] = tested on: HCC-2998 colon
[7] = tested on: IGROV1 ovarian
[8] = tested on: SNB-19 CNS
[9] = tested on: BT-549 breast
[10] = tested on: DU-145 prostate
[11] = tested on: SK-MEL-28 melanoma
[12] = tested on: RXF 393 renal
[13] = tested on: NCI-H522 lung
[14] = tested on: SK-MEL-5 melanoma
[15] = tested on: RPMI-8226 leukemia
[16] = tested on: SN12C renal
[17] = tested on: MOLT-4 leukemia
[18] = tested on: MCF7 breast
[19] = tested on: SK-OV-3 ovarian

Row | Compound | TGI [1] | TGI [2] | TGI [3] | TGI [4] | TGI [5] | TGI [6] | TGI [7] | TGI [8] | TGI [9] | TGI [10] | TGI [11] | TGI [12] | TGI [13] | TGI [14] | TGI [15] | TGI [16] | TGI [17] | TGI [18] | TGI [19]
1 | CC1CC(=O)NC2CC1C2(C)C (stereo not drawn) | > 100 µM | > 100 µM | > 100 µM | > 100 µM | > 100 µM | > 100 µM | > 100 µM | > 100 µM | > 100 µM | > 100 µM | > 100 µM | > 100 µM | > 100 µM | > 100 µM | > 100 µM | > 100 µM | > 100 µM | > 100 µM | –
2 | CC(C)C(/C=C/c1ccc(Cl)cc1)=N\NC(=S)NN | > 100 µM | 93 µM | > 100 µM | 91.8 µM | 98.9 µM | > 100 µM | > 100 µM | > 100 µM | > 100 µM | > 100 µM | > 100 µM | 96.6 µM | 32.4 µM | > 100 µM | > 100 µM | > 100 µM | > 100 µM | 52.5 µM | > 100 µM
3 | Cc1ccc(OCCn2cc(Nc3ccccc3)c(=O)[nH]c2=O)cc1 | > 100 µM | > 100 µM | > 100 µM | > 100 µM | > 100 µM | > 100 µM | > 100 µM | > 100 µM | > 100 µM | > 100 µM | > 100 µM | > 100 µM | > 100 µM | > 100 µM | > 100 µM | > 100 µM | > 100 µM | > 100 µM | –
4 | CC1=C/C(=C(/c2ccc(O)c(C)c2)c2ccccc2C(=O)O)C=CC1=O | 72.1 µM | 44.5 µM | 36.3 µM | 35.8 µM | 35.8 µM | 34.5 µM | 34.1 µM | 32.2 µM | 39 µM | 35.6 µM | 40 µM | 33.8 µM | 42.7 µM | 34.9 µM | 46 µM | 36.7 µM | 43.1 µM | 34.5 µM | 35.1 µM
5 | CCC(CCCCC1CC[C@H]2CC(=O)C[C@@H]12)OC (stereo partly drawn) | > 100 µM | > 100 µM | > 100 µM | > 100 µM | > 100 µM | > 100 µM | > 100 µM | > 100 µM | > 100 µM | > 100 µM | > 100 µM | > 100 µM | > 100 µM | > 100 µM | > 100 µM | > 100 µM | > 100 µM | > 100 µM | > 100 µM
6 | Cc1c(C)c(C)c(CSC(=N)N)c(C)c1C | 36.6 µM | 27.8 µM | 58.2 µM | 29 µM | 27.3 µM | 27.8 µM | > 100 µM | 27.9 µM | 30.7 µM | 31.6 µM | 28.8 µM | 33.2 µM | 33 µM | 26.6 µM | 38.9 µM | 32.3 µM | 33 µM | 30.9 µM | 34.2 µM
7 | CCCCN1C(=O)C[C@H]2[C@@H]3CCc4cc(OCCN5CCCC5)ccc4[C@H]3CC[C@]2(C)C1=O | 30.4 µM | 21.4 µM | 30.8 µM | 14 µM | 13.4 µM | 15.8 µM | 30.7 µM | 26.5 µM | 26.6 µM | 27 µM | 12 µM | 4.59 µM | 22.7 µM | 15.7 µM | 9.53 µM | 30.2 µM | 14.3 µM | 15.6 µM | 27.4 µM
8 | O=C1c2cccnc2-c2nccc3ccnc1c23 | 1.77 µM | 2.98 µM | 2.17 µM | 5.92 µM | 2.27 µM | 3.41 µM | 2.12 µM | 10.9 µM | 2.78 µM | 2.65 µM | 2.58 µM | 2.52 µM | 0.666 µM | 1.84 µM | 0.894 µM | 2.36 µM | 0.756 µM | 1.7 µM | 2.9 µM
9 | O=C1C(c2c(O)[nH]c3ccc(S(=O)(=O)N(CCO)CCO)cc23)=Nc2ccccc21 | 20.3 µM | > 100 µM | > 100 µM | 8.49 µM | > 100 µM | > 100 µM | > 100 µM | > 100 µM | > 100 µM | 72.3 µM | > 100 µM | 6.53 µM | > 100 µM | > 100 µM | > 100 µM | > 100 µM | > 100 µM | > 100 µM | > 100 µM
10 | CCC(C)(C)c1ccc(Oc2cccc(C(=O)O)c2)cc1 | > 100 µM | > 100 µM | > 100 µM | > 100 µM | > 100 µM | > 100 µM | > 100 µM | > 100 µM | > 100 µM | > 100 µM | > 100 µM | > 100 µM | 89.9 µM | > 100 µM | 65.4 µM | > 100 µM | 70.7 µM | > 100 µM | > 100 µM
11 | CCCC[Si](CCCC)(CCCC)O[C@@H](/C=C/C(=O)OCC)[C@H](Cc1ccccc1)O[Si](CCCC)(CCCC)CCCC | > 100 µM | > 100 µM | > 100 µM | > 100 µM | > 100 µM | > 100 µM | > 100 µM | > 100 µM | > 100 µM | > 100 µM | – | > 100 µM | > 100 µM | – | > 100 µM | > 100 µM | > 100 µM | > 100 µM | > 100 µM
12 | COc1ccc(N=C2C(=Nc3ccc(OC)cc3)N(c3ccccc3[N+](=O)[O-])C(=S)N2c2ccc(OC)cc2)cc1 | > 100 µM | > 100 µM | > 100 µM | > 100 µM | – | > 100 µM | > 100 µM | > 100 µM | > 100 µM | > 100 µM | > 100 µM | > 100 µM | > 100 µM | > 100 µM | > 100 µM | > 100 µM | > 100 µM | > 100 µM | > 100 µM
